Values after ≈ are worked out from the molar mass of the structure shown. Like-named read-outs stand apart in the source and are kept apart here.
Legend:
Vero cells (ATCC CCL-81) = assay: Cytotoxicity on normal cells, MTT assay; type: cell-based, African green monkey; settings: MTT, healthy non-cancer cells, read-out: IC50 Vero
Experimental: 3-[4, 5-Dimethyl-2-thiazolyl)-2, 5-diphenyl-2 H-tetrazolium bromide (MTT) protocol is based on the cleavage of the tetrazolium salt by mitochondrial dehydrogenases in viable cells. Cells were dispensed in a 96 well sterile microplate (5 x 10^4 cells/well), and incubated at 37 °C with series of different concentrations, in DMSO, of each tested compound or Doxorubicin ® (positive control) for 48 h in a serum free medium prior to the MTT assay. After incubation, media were carefully removed, 40 µL of MTT (2.5 mg/mL) were added to each well and then incubated for an additional 4 h. The purple formazan dye crystals were solubilized by the addition of 200 µL of DMSO. The absorbance was measured at 590 nm using a SpectraMax® Paradigm® Multi-Mode microplate reader. The relative cell viability was expressed as the mean percentage of viable cells compared to the untreated control cells.
All experiments were conducted in triplicate and repeated in three different days. All the values were represented as mean ± SD. IC 50s were determined by probit analysis using SPSS software program (SPSS

Bacillus subtilis [1] = assay: MIC/MBC, paper disk diffusion; type: cell-based; settings: B. subtilis; for MBC: read-out: MBC
Procedure, shortened: (§1)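 MIC and MBC were obtained by paper disk diffusion, bacteria grown on nutrient agar and fungi/yeast on Sabouraud agar. MIC is the lowest concentration inhibiting growth.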

Escherichia coli [2] = assay: MIC/MBC, paper disk diffusion; type: cell-based; settings: E. coli; for MBC / MIC: Escherichia coli; for MBC: read-out: MBC; for MIC: read-out: MIC
Procedure, shortened: as §1

Pseudomonas aeruginosa [3] = assay: MIC/MBC, paper disk diffusion; type: cell-based; settings: P. aeruginosa; for MBC / MIC: Pseudomonas aeruginosa; for MBC: read-out: MBC; for MIC: read-out: MIC
Procedure, shortened: as §1

Enterococcus faecalis [4] = assay: MIC/MBC, paper disk diffusion; type: cell-based; settings: E. faecalis; for MBC: read-out: MBC; for MIC: read-out: MIC
Procedure, shortened: as §1

Salmonella typhi = assay: MIC/MBC, paper disk diffusion; type: cell-based; settings: Salmonella enterica, S. typhi; for MBC: read-out: MBC
Procedure, shortened: as §1

Staphylococcus aureus = assay: MIC/MBC, paper disk diffusion; type: cell-based; settings: Staphylococcus aureus, S. aureus; for MBC: read-out: MBC; for MIC: read-out: MIC
Procedure, shortened: as §1

DHFR E. coli = DHFR E. coli (Escherichia coli, UniProt P0ABQ4); assay: Dihydrofolate reductase enzyme assay; type: biochemical; settings: for Fold potential relative to Trimethoprim (IC50): DHFR
Chain of DHFR E. coli (P0ABQ4 whole entry, the tested form may be a part): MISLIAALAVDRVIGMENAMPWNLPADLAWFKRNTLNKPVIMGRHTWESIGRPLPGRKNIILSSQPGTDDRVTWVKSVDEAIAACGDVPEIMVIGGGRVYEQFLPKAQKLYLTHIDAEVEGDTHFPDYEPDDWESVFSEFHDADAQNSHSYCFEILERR

[5] = test system: S. aureus ATCC 43300 (MRSA); assay: Inhibition zone against MDRB, agar plate diffusion; type: cell-based
Bacillus subtilis [6] = assay: Inhibition zone, agar plate diffusion; type: cell-based; settings: Bs, mm ± standard deviation, sample at 0.5 mg/mL, read-out: Inhibition zone (IZ)
Procedure, shortened: (§2)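 Compounds in DMSO, with DMSO as negative control, were tested at 0.5 mg/mL in agar wells cut 10 mm wide.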

Escherichia coli [7] = assay: Inhibition zone, agar plate diffusion; type: cell-based; settings: Ec, mm ± standard deviation, sample at 0.5 mg/mL, read-out: Inhibition zone (IZ)
Procedure, shortened: as §2

Pseudomonas aeruginosa [8] = assay: Inhibition zone, agar plate diffusion; type: cell-based; settings: Pa, mm ± standard deviation, sample at 0.5 mg/mL, read-out: Inhibition zone (IZ)
Procedure, shortened: as §2

Enterococcus faecalis [9] = assay: Inhibition zone, agar plate diffusion; type: cell-based; settings: Ef, mm ± standard deviation, sample at 0.5 mg/mL, read-out: Inhibition zone (IZ)
Procedure, shortened: as §2

S. aureus ATCC 33591 = assay: MIC/MBC against MDRB, paper disk diffusion; type: cell-based; settings: Staphylococcus aureus, ATCC33591, S. aureus ATCC 33591; for MBC: read-out: MBC; for MIC: read-out: MIC
From the text: The inhibition zone (IZ, mm±standard deviation) of pyrazole Schiff bases ( 6b, 7b, 7c, 8a, 8d and 9b) was
measurement according to the agar plate diffusion method against a panel of multidrug-resistant bacteria
(MDRB). […]

Candida albicans = assay: MIC/MFC, paper disk diffusion; type: cell-based; settings: for MIC / MFC: Candida albicans; for MFC: read-out: MFC
Procedure, shortened: as §1

Fusarium oxysporum = assay: MIC/MFC, paper disk diffusion; type: cell-based; settings: F. oxysporum; for MFC / MIC: Fusarium oxysporum; for MFC: read-out: MFC; for MIC: read-out: MIC
Procedure, shortened: as §1

[10] = test system: hepatocellular carcinoma cell line (HepG2); assay: Antiproliferative activity, MTT assay; type: cell-based, human; settings: Homo sapiens, HepG2; MTT, 48 h; read-out: IC50 HepG-2
Procedure, shortened: (§3)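 MTT added for 4 h, formazan dissolved in DMSO, absorbance at 590 nm. Viability relative to untreated cells; IC50 by probit analysis.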

[11] = test system: mammary gland breast cancer cell line (MCF-7); assay: Antiproliferative activity, MTT assay; type: cell-based, human; settings: for IC50: Homo sapiens, MCF7, MTT, 48 h, read-out: IC50 MCF-7; for Fold relative to doxorubicin (IC50): MCF-7
Procedure, shortened: as §3

E. coli ATCC BAA-196 = assay: Inhibition zone against MDRB, agar plate diffusion; type: cell-based
S. aureus DNA Gyrase = S. aureus DNA Gyrase (Staphylococcus aureus, UniProt P0A0K8+P20831); assay: DNA gyrase enzyme assay; type: biochemical; settings: Mean ± SEM
Chain of S. aureus DNA Gyrase (P20831 whole entry): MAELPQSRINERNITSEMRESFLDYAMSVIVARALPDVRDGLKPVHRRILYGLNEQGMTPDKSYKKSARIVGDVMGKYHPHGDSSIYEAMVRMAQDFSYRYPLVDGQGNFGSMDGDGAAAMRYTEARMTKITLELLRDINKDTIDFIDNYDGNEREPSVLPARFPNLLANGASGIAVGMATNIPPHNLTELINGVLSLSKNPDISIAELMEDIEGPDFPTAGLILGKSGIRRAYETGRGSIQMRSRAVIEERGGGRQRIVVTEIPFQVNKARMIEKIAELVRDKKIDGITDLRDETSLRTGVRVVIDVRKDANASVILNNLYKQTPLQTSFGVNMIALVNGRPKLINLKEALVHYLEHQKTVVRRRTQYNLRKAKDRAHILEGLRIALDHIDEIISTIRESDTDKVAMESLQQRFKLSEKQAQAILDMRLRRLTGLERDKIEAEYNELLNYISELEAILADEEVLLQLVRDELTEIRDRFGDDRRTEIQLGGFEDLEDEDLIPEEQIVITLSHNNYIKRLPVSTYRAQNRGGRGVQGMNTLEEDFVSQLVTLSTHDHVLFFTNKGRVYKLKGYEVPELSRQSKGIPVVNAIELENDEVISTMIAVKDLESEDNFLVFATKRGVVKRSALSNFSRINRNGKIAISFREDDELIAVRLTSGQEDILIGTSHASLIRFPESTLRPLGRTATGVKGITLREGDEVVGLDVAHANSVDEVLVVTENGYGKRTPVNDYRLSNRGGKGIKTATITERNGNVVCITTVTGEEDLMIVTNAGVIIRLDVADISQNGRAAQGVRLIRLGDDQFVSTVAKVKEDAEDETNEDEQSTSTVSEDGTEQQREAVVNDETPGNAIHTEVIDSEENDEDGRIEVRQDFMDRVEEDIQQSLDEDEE
Chain of S. aureus DNA Gyrase (P0A0K8 whole entry): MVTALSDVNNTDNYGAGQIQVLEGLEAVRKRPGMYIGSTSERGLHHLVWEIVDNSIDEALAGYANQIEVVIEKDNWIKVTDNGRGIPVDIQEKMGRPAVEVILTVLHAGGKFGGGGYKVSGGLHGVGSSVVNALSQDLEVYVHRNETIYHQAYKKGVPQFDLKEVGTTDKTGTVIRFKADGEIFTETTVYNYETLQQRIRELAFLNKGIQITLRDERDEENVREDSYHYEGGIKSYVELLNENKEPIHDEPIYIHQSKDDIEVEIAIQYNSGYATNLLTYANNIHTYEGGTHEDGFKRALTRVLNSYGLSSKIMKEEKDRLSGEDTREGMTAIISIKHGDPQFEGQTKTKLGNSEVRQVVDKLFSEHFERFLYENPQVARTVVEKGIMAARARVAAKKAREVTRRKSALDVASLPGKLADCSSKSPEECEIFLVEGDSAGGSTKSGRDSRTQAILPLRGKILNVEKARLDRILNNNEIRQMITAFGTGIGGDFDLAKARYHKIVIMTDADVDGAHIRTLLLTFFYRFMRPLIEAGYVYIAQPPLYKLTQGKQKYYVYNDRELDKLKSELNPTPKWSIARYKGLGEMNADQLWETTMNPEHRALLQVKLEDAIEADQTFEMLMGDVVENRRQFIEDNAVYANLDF

B. subtilis DNA Gyrase = B. subtilis DNA Gyrase (Bacillus subtilis, UniProt P05652+P05653); assay: DNA gyrase enzyme assay; type: biochemical; settings: Mean ± SEM
Chain of B. subtilis DNA Gyrase (P05652 whole entry): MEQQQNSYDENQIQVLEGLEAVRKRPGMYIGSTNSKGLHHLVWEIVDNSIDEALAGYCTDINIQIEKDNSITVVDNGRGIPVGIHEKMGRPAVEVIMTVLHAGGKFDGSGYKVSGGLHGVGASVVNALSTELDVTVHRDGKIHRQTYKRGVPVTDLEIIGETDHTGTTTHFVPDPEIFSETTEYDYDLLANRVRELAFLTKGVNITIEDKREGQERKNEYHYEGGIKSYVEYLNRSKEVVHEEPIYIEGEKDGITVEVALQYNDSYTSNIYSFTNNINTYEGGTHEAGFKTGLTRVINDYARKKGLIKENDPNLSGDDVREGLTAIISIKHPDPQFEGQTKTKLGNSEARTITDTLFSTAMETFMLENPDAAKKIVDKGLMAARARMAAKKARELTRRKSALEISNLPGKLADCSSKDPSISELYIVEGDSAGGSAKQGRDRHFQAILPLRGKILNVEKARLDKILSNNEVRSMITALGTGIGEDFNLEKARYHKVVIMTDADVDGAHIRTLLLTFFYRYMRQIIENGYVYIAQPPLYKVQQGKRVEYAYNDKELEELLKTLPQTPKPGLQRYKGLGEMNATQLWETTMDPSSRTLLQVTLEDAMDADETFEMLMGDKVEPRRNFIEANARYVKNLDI
Chain of B. subtilis DNA Gyrase (P05653 whole entry): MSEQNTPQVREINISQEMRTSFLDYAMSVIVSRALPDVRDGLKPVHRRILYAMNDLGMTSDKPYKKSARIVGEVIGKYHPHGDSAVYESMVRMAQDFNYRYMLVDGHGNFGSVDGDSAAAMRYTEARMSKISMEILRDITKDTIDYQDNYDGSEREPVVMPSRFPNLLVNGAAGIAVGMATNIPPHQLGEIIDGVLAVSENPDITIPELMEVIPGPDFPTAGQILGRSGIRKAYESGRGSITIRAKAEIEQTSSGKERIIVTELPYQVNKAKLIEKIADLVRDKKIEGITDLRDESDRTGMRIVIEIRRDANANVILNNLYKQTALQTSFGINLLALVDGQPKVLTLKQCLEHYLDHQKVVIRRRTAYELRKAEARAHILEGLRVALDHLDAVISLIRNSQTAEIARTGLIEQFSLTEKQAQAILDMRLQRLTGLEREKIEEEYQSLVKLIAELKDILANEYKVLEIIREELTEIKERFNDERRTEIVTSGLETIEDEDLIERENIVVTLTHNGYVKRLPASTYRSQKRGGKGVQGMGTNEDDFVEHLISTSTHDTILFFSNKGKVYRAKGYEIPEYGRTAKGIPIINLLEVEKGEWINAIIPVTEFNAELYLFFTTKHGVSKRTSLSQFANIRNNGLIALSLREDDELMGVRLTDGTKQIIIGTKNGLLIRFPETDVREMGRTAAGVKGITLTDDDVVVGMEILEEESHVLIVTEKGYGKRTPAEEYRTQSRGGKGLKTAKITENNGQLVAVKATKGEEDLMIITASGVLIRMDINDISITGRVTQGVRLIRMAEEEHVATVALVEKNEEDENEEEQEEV

[12] = Bacillus subtilis, read-out: MIC

| Structure (SMILES) | IC50 (Vero cells (ATCC CCL-81); Chlorocebus sabaeus, Vero) [µM] | IC50 (Vero cells (ATCC CCL-81)) [µM] | MBC (Bacillus subtilis [1]; Bacillus subtilis) [µg/mL] | MIC (Bacillus subtilis [1]; [12]) [µg/mL] | MBC (Escherichia coli [2]) [µg/mL] | MIC (Escherichia coli [2]) [µg/mL] | MBC (Pseudomonas aeruginosa [3]) [µg/mL] | MIC (Pseudomonas aeruginosa [3]) [µg/mL] | MBC (Enterococcus faecalis [4]) [µg/mL] | MIC (Enterococcus faecalis [4]) [µg/mL] | MIC (Salmonella typhi) [µg/mL] | MBC (Salmonella typhi) [µg/mL] | MBC (Staphylococcus aureus) [µg/mL] | MIC (Staphylococcus aureus) [µg/mL] | IC50 (DHFR E. coli) [µM] | Fold potential relative to Trimethoprim (IC50) (DHFR E. coli) [fold] | Mean Diameter of Inhibition Zone against MDRB [5] [mm] | zone of inhibition at 500 µg/mL (Bacillus subtilis [6]) [mm] | zone of inhibition at 500 µg/mL (Escherichia coli [7]) [mm] | zone of inhibition at 500 µg/mL (Pseudomonas aeruginosa [8]) [mm] | other results |
| --- | --- | --- | --- | --- | --- | --- | --- | --- | --- | --- | --- | --- | --- | --- | --- | --- | --- | --- | --- | --- | --- |
| COc1ccc(Nc2n[nH]c(N=Cc3ccc(N4CCCCC4)cc3)c2C(N)=O)cc1 [8a, 3-(p-Methoxyphenylamino)-5-(4-(piperidin-1-yl)benzylideneamino)-1H-pyrazole-4-carboxamide] | > 120 | 120.5 ± 0.34 | 3.9 (≈ 9.32 µM) | 1.92 (≈ 4.59 µM) | 1.94 (≈ 4.64 µM) | 0.97 (≈ 2.32 µM) | 10.6 (≈ 25.3 µM) | 5.57 (≈ 13.3 µM) | 6.63 (≈ 15.8 µM) | 3.9 (≈ 9.32 µM) | 7.81 (≈ 18.7 µM) | 12.5 (≈ 29.8 µM) | 5.57 (≈ 13.3 µM) | 5.57 (≈ 13.3 µM) | 3.98 ± 0.61 | 1.3 | 26 ± 0.15 | 27 ± 0.5 | 23 ± 0.14 | 25 ± 0.85 | MIC (Bacillus subtilis [1]): 1.95 µg/mL (≈ 4.66 µM); Fold more than Tetracycline (MIC) (Escherichia coli [2]): 16 fold; Fold more than Tetracycline (MIC) (Pseudomonas aeruginosa [3]): 11.2 fold; zone of inhibition at 500 µg/mL (Enterococcus faecalis [9]): 25 ± 0.33 mm; MBC (S. aureus ATCC 33591): 7.8 µg/mL (≈ 18.6 µM); MIC (S. aureus ATCC 33591): 3.9 µg/mL (≈ 9.32 µM); Fold activity in comparison with Amphotericin B (MIC) (Candida albicans; C. albicans): 2 fold; MIC (Candida albicans): 7.81 µg/mL (≈ 18.7 µM); MFC (Candida albicans; C. albicans): 15.6 µg/mL (≈ 37.3 µM); Fold activity in comparison with Amphotericin B (MIC) (Fusarium oxysporum): 2 fold; MFC (Fusarium oxysporum): 27.8 µg/mL (≈ 66.4 µM); MIC (Fusarium oxysporum): 15.6 µg/mL (≈ 37.3 µM); IC50 [10]: 2.25 ± 0.85 µM; IC50 [11]: 1.98 ± 1.55 µM; Fold relative to doxorubicin (IC50) [11]: 0.979 fold; Mean Diameter of Inhibition Zone against MDRB (E. coli ATCC BAA-196): 25 ± 0.46 mm; IC50 (S. aureus DNA Gyrase): 7.69 ± 0.23 µM; IC50 (B. subtilis DNA Gyrase): 15.3 ± 0.5 µM |
| COc1ccc(Nc2n[nH]c(N=Cc3cc(OC)c(OC)c(OC)c3)c2C(=O)Nc2ccccc2)cc1 [9b, 3-(p-Methoxyphenylamino)-N-phenyl-5-(3,4,5-trimethoxybenzylideneamino)-1H-pyrazole-4-carboxamide] | > 120 | 195.9 ± 0.57 | 9.2 (≈ 18.3 µM) | 4.5 (≈ 8.97 µM) | 14.1 (≈ 28 µM) | 7.81 (≈ 15.6 µM) | 31.2 (≈ 62.3 µM) | 15.6 (≈ 31.1 µM) | 7.41 (≈ 14.8 µM) | 3.9 (≈ 7.78 µM) | 5.57 (≈ 11.1 µM) | 10.6 (≈ 21.1 µM) | 15.6 (≈ 31.1 µM) | 7.81 (≈ 15.6 µM) | 6.48 ± 0.33 | 0.80 | 24 ± 0.65 | 25 ± 0.87 | 23 ± 0.2 | 21 ± 0.55 | Fold more potent than Tetracycline (MIC) (Bacillus subtilis [1]): 6 fold; zone of inhibition at 500 µg/mL (Enterococcus faecalis [9]): 24 ± 0.35 mm; MBC (S. aureus ATCC 33591): 3.31 µg/mL (≈ 6.6 µM); MIC (S. aureus ATCC 33591): 1.95 µg/mL (≈ 3.89 µM); Fold activity in comparison with Amphotericin B (MIC) (Candida albicans; C. albicans): 2 fold; MFC (Candida albicans; C. albicans): 12.5 µg/mL (≈ 24.9 µM); MIC (Candida albicans; C. albicans, read-out: MIC): 7.81 µg/mL (≈ 15.6 µM); Fold activity in comparison with Amphotericin B (MIC) (Fusarium oxysporum): 2 fold; MFC (Fusarium oxysporum): 26.6 µg/mL (≈ 52.9 µM); MIC (Fusarium oxysporum): 15.6 µg/mL (≈ 31.1 µM); IC50 [10]: 1.92 ± 0.49 µM; IC50 [11]: 2.21 ± 0.36 µM; Fold relative to doxorubicin (IC50) [11]: 0.877 fold; Mean Diameter of Inhibition Zone against MDRB (E. coli ATCC BAA-196): 22 ± 0.2 mm; IC50 (S. aureus DNA Gyrase): 10.5 ± 0.55 µM; IC50 (B. subtilis DNA Gyrase): 14.2 ± 0.42 µM |
